Reference: patent publication US10940139B2, “Compounds that interact with the Ras superfamily for the treatment of cancers, inflammatory diseases, rasopathies, and fibrotic disease” (Shy Therapeutics LLC, priority 2017, dated 2021)

What follows are compounds tested on MIA-PACA2 pancreatic cancer cell lines (assay: Cell proliferation assay (CellTiter 96 AQueous One)). Conditions: Homo sapiens, MIA PaCa-2; MIA-PACA2, same assay as the % inhibition (standard conditions).
Format: cell-based

IC50 | Structure (SMILES)
> 1000 nM | O=c1nc(-c2ccccn2)[nH]c2ccsc12 [drawing 1494]
100 to 500 nM | Oc1nc(-c2ccccn2)nc2c(-c3cc(Cl)cc(Cl)c3)csc12 [drawing 1724]
> 1000 nM | O=C(CN1CCN(c2nc(-c3ccccn3)nc3sc(-c4ccccc4)cc23)CC1)N1CCCC1 [drawing 1606]

Same assay, conditions: Homo sapiens, MIA PaCa-2; at 30 μM, MIA-PACA2

Structure (SMILES) | inhibition at 30 µM
NC(=O)C1(CNc2nc(-c3ccccn3)nc3c2CCC3)CCCC1 [drawing 1514] | 76 to 100%
Oc1nc(-c2ccccn2)nc2c(-c3ccccc3OC3CCCCC3)csc12 [drawing 1742] | 76 to 100%
CCC(C)c1csc2c(OC)nc(-c3ccccn3)nc12 (centres unmarked) [drawing 1794] | 76 to 100%
O=C(c1csc2c(O)nc(-c3ccccn3)nc12)N1CCN(Cc2ccc(O)c(Cl)c2)CC1 [drawing 1658] | 76 to 100%
Cc1cccc(C(=O)Nc2nnc(-c3ccccn3)[nH]2)n1 [drawing 1436] | 51 to 75%
COc1nccc(CCNC(=O)c2csc3nc(-c4ccccn4)nc(N4CCOCC4)c23)n1 [drawing 1773] | 76 to 100%
O=C(Nc1nnc(-c2ccccn2)[nH]1)c1ccn(-c2ccccc2)n1 [drawing 1394] | 76 to 100%
Nc1nc(O)c2scc(Br)c2n1 [drawing 1557] | 1 to 25%
O=C(Nc1nnc(-c2ccccn2)[nH]1)c1nc(N2CCOCC2)ncc1Cl [drawing 1421] | 76 to 100%
COC(=O)C(C)CN(Cc1cc(Br)ccc1[N+](=O)[O-])C1CC1 (centres unmarked) [drawing 1534] | 1 to 25%
COc1ccc(CCNC(=O)c2csc3nc(-c4ccccn4)nc(N4CCOCC4)c23)cn1 [drawing 1639] | 51 to 75%
O=C(c1csc2c(O)nc(-c3ccccn3)nc12)N1CCNC(c2cn[nH]c2)C1 (centres unmarked) [drawing 1734] | 1 to 25%
COCCCCNC(=O)c1csc2nc(-c3ccccn3)nc(N(CCOC)CCOC)c12 [drawing 1686] | 76 to 100%
Oc1nc(-c2ccccn2)nc2c(-c3ccc4c(c3)OCO4)csc12 [drawing 1755] | 76 to 100%
O=C(Cc1cccc(F)c1)Nc1nc(-c2ccccn2)cs1 [drawing 1484] | 76 to 100%
CN(Cc1nnc(-c2ccccc2Cl)o1)Cc1ccccc1C(F)(F)F [drawing 1406] | 25 to 50%
O=C(c1csc2c(O)nc(-c3ccccn3)nc12)N1CCN(c2cccc(F)c2)CC1 [drawing 1647] | 76 to 100%
CC(Nc1nc(-c2ccccn2)nc2scc(-c3ccccc3)c12)c1nncn1C (centres unmarked) [drawing 1601] | 76 to 100%
COc1cc(N2CCN(C(=O)c3csc4c(O)nc(-c5ccccn5)nc34)CC2)cc(OC)c1OC [drawing 1651] | 51 to 75%
O=C(c1csc2c(O)nc(-c3ccccn3)nc12)N1CCN(c2ccc(O)c(Cl)c2)CC1 [drawing 1696] | 76 to 100%
CCOc1cc(S(=O)(=O)N(Cc2ccccc2)Cc2ccccc2)c(OCC)cc1C [drawing 1529] | 76 to 100%

Structure (SMILES) | inhibition at 30 µM
Oc1nc(-c2ccccn2)nc2c(-c3ccccc3F)csc12 [drawing 1744] | 76 to 100%
O=C(c1csc2c(O)nc(-c3ccccn3)nc12)N1CCC(N2CCCC2=O)CC1 [drawing 1568] | 1 to 25%
COC(=O)c1cc2nc(-c3ccccn3)nc(O)c2s1 [drawing 1783] | 76 to 100%
c1ccc(-c2nc(NCC3CCCO3)c3ccsc3n2)nc1 (centres unmarked) [drawing 1591] | 76 to 100%
O=c1nc(-c2ccccn2)[nH]c2scc(-c3ccccc3Cl)c12 [drawing 1492] | 76 to 100%
O=C(Nc1nnc(-c2ccccn2)[nH]1)c1ccc(CN2C(=O)CCC2=O)cc1 [drawing 1405] | 1 to 25%
O=C(c1csc2c(O)nc(-c3ccccn3)nc12)N1CCNC(c2ccccc2F)C1 (centres unmarked) [drawing 1669] | 76 to 100%
CN(CCc1ccncc1)C(=O)c1csc2c(O)nc(-c3ccccn3)nc12 [drawing 1577] | 25 to 50%
CN1CCN(c2nc(-c3ccccn3)nc3scc(C(=O)NCCc4cnc(O)nc4)c23)CC1 [drawing 1775] | 25 to 50%
O=c1nc(-c2ccccn2)[nH]c2scc(-c3cccs3)c12 [drawing 1490] | 76 to 100%
OC1CCCN(c2nc(-c3ccccn3)nc3scc(-c4ccccc4)c23)C1 (centres unmarked) [drawing 1617] | 76 to 100%
Cc1ccc(CC(=O)Nc2nnc(-c3ccccn3)[nH]2)cc1 [drawing 1402] | 25 to 50%
CC(C)C(=O)Nc1nc(CC(=O)Nc2nnc(-c3ccccn3)[nH]2)cs1 [drawing 1453] | 76 to 100%
COc1ccc(NC(=O)CCc2c(C)nc(-c3ccccn3)nc2O)cn1 [drawing 1501] | 76 to 100%
Oc1nc(-c2ccccn2)nc2c(-c3ccc(OC4CCCCC4)cc3)csc12 [drawing 1763] | 76 to 100%
COc1ccc(F)cc1-c1csc2c(O)nc(-c3ccccn3)nc12 [drawing 1750] | 76 to 100%
CN(CC(=O)N1CCOCC1)c1nc(-c2ccccn2)nc2scc(-c3ccccc3)c12 [drawing 1609] | 51 to 75%
CS(=O)(=O)N1CCCc2cc(C(=O)Nc3nnc(-c4ccccn4)[nH]3)ccc21 [drawing 1469] | 76 to 100%
O=C(Nc1nc(-c2ccccn2)cs1)c1cccnc1 [drawing 1483] | 76 to 100%
CC(c1ccccc1)N1CCN(C(=O)c2csc3c(O)nc(-c4ccccn4)nc23)CC1 (centres unmarked) [drawing 1697] | 76 to 100%
O=C(c1cc2nc(-c3ccccn3)nc(O)c2s1)N1CCOC(c2ccccc2)C1 (centres unmarked) [drawing 1718] | 76 to 100%

Structure (SMILES) | inhibition at 30 µM
Cc1cc2nc(-c3ccccn3)nc(N)c2s1 [drawing 1712] | 76 to 100%
Oc1nc(-c2ccccn2)nc2c(-c3ccc(C4CCC4)cc3)csc12 [drawing 1741] | 76 to 100%
O=C(c1csc2c(O)nc(-c3ccccn3)nc12)N1CCC(c2cccc(O)c2)C1 (centres unmarked) [drawing 1716] | 76 to 100%
O=C(Nc1nnc(-c2ccccn2)[nH]1)C1CC(=O)N(Cc2cccc(C(F)(F)F)c2)C1 (centres unmarked) [drawing 1458] | 76 to 100%
N#CC1(c2ccc(C(=O)N3CCCC3CO)cc2)CC1 (centres unmarked) [drawing 1537] | 51 to 75%
Nc1nc(-c2ccccn2)nc2scc(C(=O)O)c12 [drawing 1782] | 1 to 25%
CC(C)(C(=O)Nc1nc(-c2ccccn2)nc2sccc12)c1ccc(C#N)cc1 [drawing 1646] | 76 to 100%
O=c1nc(-c2ccccn2)[nH]c2ccsc12 [drawing 1494] | 1 to 25%
O=C(Nc1nnc(-c2ccccn2)[nH]1)C1CCCN(c2cnccn2)C1 (centres unmarked) [drawing 1439] | 76 to 100%
COc1ncc(CCNC(=O)c2csc3nc(-c4ccccn4)nc(N4CCOCC4)c23)cn1 [drawing 1642] | 76 to 100%
COc1cc(-c2csc3c(O)nc(-c4ccccn4)nc23)cnc1C(F)(F)F [drawing 1760] | 76 to 100%
CC(=O)C1CCN(c2nc(-c3ccccn3)nc3scc(-c4ccccc4)c23)CC1 | 76 to 100%
Cc1ccc(CC(=O)Nc2nnc(-c3ccccn3)[nH]2)cn1 [drawing 1419] | 51 to 75%
Oc1nc(-c2ccccn2)nc2c(-c3cc(F)ccc3OC(F)F)csc12 [drawing 1736] | 76 to 100%
COc1ccccc1-c1cc(C(=O)Nc2nnc(-c3ccccn3)[nH]2)no1 [drawing 1451] | 76 to 100%
Cc1cnccc1-c1csc2c(O)nc(-c3ccccn3)nc12 [drawing 1764] | 76 to 100%
O=C(CC1CCCC1)NCC(=O)Nc1nnc(-c2ccccn2)[nH]1 [drawing 1415] | 1 to 25%
COCCOCCN(C)C(=O)c1csc2c(O)nc(-c3ccccn3)nc12 [drawing 1575] | 25 to 50%
Oc1nc(-c2ccccn2)nc2c(-c3ccc4c(c3)CCCO4)csc12 [drawing 1778] | 76 to 100%
CC1CCN(C(=O)c2csc3c(O)nc(N)nc23)CC1 [drawing 1558] | 1 to 25%
COCCNc1nc(-c2ccccn2)nc2scc(-c3ccccc3)c12 [drawing 1625] | 76 to 100%

Structure (SMILES) | inhibition at 30 µM
Cc1oc(-c2ccccc2)nc1C(=O)Nc1nnc(-c2ccccn2)[nH]1 [drawing 1393] | 76 to 100%
CCCNC(=O)CN1CCN(c2nc(-c3ccccn3)nc3sc(-c4ccccc4)cc23)CC1 [drawing 1598] | 76 to 100%
Oc1nc(-c2ccccn2)nc2c(-c3cc(F)cc(F)c3)csc12 [drawing 1776] | 76 to 100%
COc1ccc(N2CCN(C(=O)c3csc4c(O)nc(-c5ccccn5)nc34)CC2)c(OC)c1 [drawing 1652] | 76 to 100%
O=C(NCCc1cccnc1)c1csc2c(O)nc(-c3ccccn3)nc12 [drawing 1578] | 76 to 100%
CNC(=O)CN1CCN(c2nc(-c3ccccn3)nc3scc(-c4ccccc4)c23)CC1 [drawing 1607] | 1 to 25%
c1ccc(-c2csc3nc(-c4ccccn4)nc(N4CCN(CC5CCCO5)CC4)c23)cc1 (centres unmarked) [drawing 1603] | 76 to 100%
CON(C)c1nc(-c2ccccn2)nc2scc(-c3ccccc3)c12 [drawing 1610] | 76 to 100%
O=C(COCc1ccccc1Cl)Nc1nnc(-c2ccccn2)[nH]1 [drawing 1431] | 76 to 100%
Oc1nc(-c2ccccn2)nc2c(-c3cc(Cl)cc(Cl)c3)csc12 [drawing 1724] | 76 to 100%
O=C(c1csc2c(O)nc(-c3ccccn3)nc12)N1CCOC(c2nccs2)C1 (centres unmarked) [drawing 1636] | 76 to 100%
COc1ccc(N2CCN(C(=O)c3csc4c(O)nc(-c5ccccn5)nc34)CC2)cc1O [drawing 1695] | 76 to 100%
Cc1ccc(OC2CCCC2)c(-c2csc3c(O)nc(-c4ccccn4)nc23)c1 [drawing 1720] | 76 to 100%
Oc1nc(-c2ccccn2)nc2c(-c3ccc(OC(F)F)cc3F)csc12 [drawing 1752] | 76 to 100%
O=C(c1csc2c(O)nc(-c3ccccn3)nc12)N1CCNC(Cc2cccc(F)c2)C1 (centres unmarked) [drawing 1708] | 25 to 50%
O=C(CN1CCN(c2nc(-c3ccccn3)nc3sc(-c4ccccc4)cc23)CC1)N1CCCC1 [drawing 1606] | 76 to 100%
O=C(Nc1nnc(-c2ccccn2)[nH]1)C1CCCN(c2ncccn2)C1 (centres unmarked) [drawing 1426] | 76 to 100%
O=C(NCCc1cncs1)c1csc2nc(-c3ccccn3)nc(N3CCOCC3)c12 [drawing 1643] | 76 to 100%
O=C(Nc1nnc(-c2ccccn2)[nH]1)c1ccc(NC(=O)c2ccccn2)cc1 [drawing 1440] | 25 to 50%
Cc1ccc(CN(Cc2ccco2)C(=O)c2oc3ccccc3c2C)cc1 [drawing 1520] | 1 to 25%
